# Patent US7777047B2, “Indole compound” (Takeda Pharmaceutical Company Limited, priority 2006, dated 2010)
# Target: T1, GST-hLGK1 (human liver GK) (Homo sapiens, UniProt P35557)
# T1 construct: made in house; host or cells: Escherichia coli BL21 (Stratagene), plasmid pGEX6P-2/hLGK1
# T1 sequence (P35557 1-464 isoform P35557-3): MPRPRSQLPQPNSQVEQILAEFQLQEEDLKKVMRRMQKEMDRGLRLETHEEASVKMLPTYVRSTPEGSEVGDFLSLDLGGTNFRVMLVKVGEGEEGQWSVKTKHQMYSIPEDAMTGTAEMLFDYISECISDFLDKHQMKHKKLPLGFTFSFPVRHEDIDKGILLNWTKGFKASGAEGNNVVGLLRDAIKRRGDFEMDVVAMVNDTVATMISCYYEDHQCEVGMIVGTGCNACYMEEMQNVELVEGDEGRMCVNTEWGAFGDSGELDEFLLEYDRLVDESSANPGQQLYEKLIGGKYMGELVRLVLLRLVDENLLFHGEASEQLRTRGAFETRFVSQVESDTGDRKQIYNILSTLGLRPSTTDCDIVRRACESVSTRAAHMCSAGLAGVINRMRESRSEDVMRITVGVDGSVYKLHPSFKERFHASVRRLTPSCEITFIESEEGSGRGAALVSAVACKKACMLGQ
# Test: Determination of GK activity value (GST-hLGK1, Mant-ATP, capillary electrophoresis)
# Type: biochemical
# Conditions: glucokinase activation; GST-hLGK1, D-glucose, 37° C. for 60 min; concentration at midpoint between maximum activity value and control group activity value
# Protocol: Plasmid DNA to be used for the expression of a protein (GST-hLGK1) containing GST (Glutathione S-transferase) added to the amino terminal of human liver GK in Escherichia coli was prepared as follows.
# BL21 strain (Stratagene) transformed with pGEX6P-2/hLGK1 obtained in Reference Example 1A was cultured with shaking at 37° C. for 14 hr in a 200 ml Erlenmeyer flask containing 50 ml of 100 μg/ml ampicillin-containing LB medium. The culture medium (25 ml) was diluted with 225 ml of 100 μg/ml ampicillin-containing LB medium, and further cultured with shaking at 37° C. for 1 hr in a 1 L Erlenmeyer flask. After culture, the Erlenmeyer flask was cooled on ice, 125 μL of 100 mM isopropyl-thio-β-D-galactopyranoside (IPTG) was added (final concentration 50 μM), and cultured at 17° C. for 20 hr. The culture medium was centrifuged, and the obtained fungus was disrupted by ultrasonication. The object protein (GST-hLGK1) was purified from the supernatant using Glutathione Sepharose 4B (Amersham Biosciences K.K.).
# A solution (5 μL) of test compound in 50% dimethyl sulfoxide was added to each well of 384 well black plate (Nalge Nunc International K.K.). Then, a solution ([…]) obtained by diluting GST-hLGK1 obtained in Reference Example 2A with measurement buffer (containing 50 mM HEPES (pH 7.4), 200 mM KCl, 5 mM MgCl2, 2.5 mM DTT and 50 μM 2′-(or-3′)-O—(N-methylanthraniloyl)adenosine 5′-triphosphate (Mant-ATP) (Jena Bioscience GmbH)) to 6 μg/mL was added to each well.
# Each well was stood at 37° C. for 10 min, and 25 mM D-glucose solution (10 μL) was added to start the reaction.
# Each well after the reaction was stood at 37° C. for 60 min, and the reaction was quenched by adding 25 μL of a quenching solution (containing 200 mM HEPES (pH 7.4), 20 mM MgCl2, 200 mM EDTA, 0.03% Triton-X 100, 0.3% Coating 3 reagent (Caliper Life Sciences, Inc.)).
# 2′-(or-3′)-O—(N-methylanthraniloyl)adenosine 5′-triphosphate (Mant-ATP, substrate) and Mant-ADP (reaction resultant product) were separated from each well after the reaction by a microchip type capillary electrophoresis apparatus 250 HTS (Caliper Life Sciences, Inc.). The reaction rate [(reaction resultant product peak height)/(reaction resultant product peak height+substrate peak height)×100(%)] was calculated from the ratio of the substrate peak height and reaction resultant product peak height obtained by fluorescence detection (excitation wavelength 355 nm, measurement wavelength 460 nm) and used as the index of GK activity.
# As a control group, the reaction rate was calculated in the same manner as above except that “solution in 50% dimethyl sulfoxide (without test compound)” was used instead of “solution of test compound in 50% dimethyl sulfoxide”.
# A concentration dependency curve of the test compound was drawn with the percentage obtained by dividing the reaction rate of the well added with the test compound (test compound addition group) by the reaction rate of the control group was taken as the GK activity value of the test compound, and the concentration of the test compound at the midpoint between the maximum activity value of the test compound addition group and the control group activity value is shown as EC50 value.
row,Structure (SMILES),EC50 [nM]
1,"CN(c1cccc2cc(C3=NCC(CC(N)=O)S3)[nH]c12)S(=O)(=O)c1ccccn1 (single isomer, unassigned) [Example 337, 2-(2-{7-[methyl(pyridin-2-ylsulfonyl)amino]-1H-indol-2-yl}-4,5-dihydro-1,3-thiazol-5-yl)acetamide]",82
2,"COCCOc1cc(N(C)S(=O)(=O)c2ccccn2)c2[nH]c(C3=NCC(CN4CCS(=O)(=O)CC4)S3)cc2c1 (single isomer, unassigned) [Example 528, N-[2-{5-[(1,1-dioxidothiomorpholino)methyl]-4,5-dihydro-1,3-thiazol-2-yl}-5-(2-methoxyethoxy)-1H-indol-7-yl]-N-methylpyridine-2-sulfonamide]",260
3,"CN(C)C(=O)CN1CCN(Cc2cnc(-c3cc4cccc(N(C)S(=O)(=O)c5cccs5)c4[nH]3)s2)CC1 [Example 10, N,N-dimethyl-2-{4-[(2-{7-[methyl(2-thienylsulfonyl)amino]-1H-indol-2-yl}-1,3-thiazol-5-yl)methyl]piperazin-1-yl}acetamide ditrifluoroacetate]",210
4,"CC(=O)N1CCN(Cc2nnc(-c3cc4cccc(N(C)S(=O)(=O)c5cccs5)c4[nH]3)s2)CC1 [Example 198, N-(2-{5-[(4-acetylpiperazin-1-yl)methyl]-1,3,4-thiadiazol-2-yl}-1H-indol-7-yl)-N-methylthiophene-2-sulfonamide]",530
5,"CC(=O)N1CCN(CC2CN=C(c3cc4cccc(N(C)S(=O)(=O)c5cccs5)c4[nH]3)S2)CC1 (stereo not shown) [Example 218, N-(2-{5-[(4-acetylpiperazin-1-yl)methyl]-4,5-dihydro-1,3-thiazol-2-yl}-1H-indol-7-yl)-N-methylthiophene-2-sulfonamide]",180
6,"CN(c1cccc2cc(-c3ncc(CN4CCN5C(=O)OCC5C4)s3)[nH]c12)S(=O)(=O)c1cccs1 (stereo not shown) [Example 229, N-methyl-N-(2-{5-[(3-oxotetrahydro[1,3]oxazolo[3,4-a]pyrazin-7(1H)-yl)methyl]-1,3-thiazol-2-yl}-1H-indol-7-yl)thiophene-2-sulfonamide]",120
7,"CCN(c1cccc2cc(-c3ncc(CN4CCn5cnnc5C4)s3)[nH]c12)S(=O)(=O)c1cccs1 [Example 236, N-{2-[5-(5,6-dihydro[1,2,4]triazolo[4,3-a]pyrazin-7(8H)-ylmethyl)-1,3-thiazol-2-yl]-1H-indol-7-yl}-N-ethylthiophene-2-sulfonamide]",250
8,"COCCOc1cc(N(C)S(=O)(=O)c2ccccn2)c2[nH]c(C3=N[C@H](CO)CS3)cc2c1 [Example 253, N-[2-[(4R)-4-(hydroxymethyl)-4,5-dihydro-1,3-thiazol-2-yl]-5-(2-methoxyethoxy)-1H-indol-7-yl]-N-methylpyridine-2-sulfonamide]",210
9,"COCCOc1cc(N(C)S(=O)(=O)c2ccccn2)c2[nH]c(C3=N[C@@H](CO)CS3)cc2c1 [Example 254, N-[2-[(4S)-4-(hydroxymethyl)-4,5-dihydro-1,3-thiazol-2-yl]-5-(2-methoxyethoxy)-1H-indol-7-yl]-N-methylpyridine-2-sulfonamide]",200

# The next compounds have a lower EC50 than those just listed; values first:
row,EC50 [nM],Structure (SMILES)
1,31,"CC(=O)N1CCN(Cc2cnc(-c3cc4c(Cl)ccc(N(C)S(=O)(=O)c5cccs5)c4[nH]3)s2)CC1 [Example 191, N-(2-{5-[(4-acetylpiperazin-1-yl)methyl]-1,3-thiazol-2-yl}-4-chloro-1H-indol-7-yl)-N-methylthiophene-2-sulfonamide]"
2,61,"CN(c1cccc2cc(C3=NCC(C)(CCN4CCOCC4)S3)[nH]c12)S(=O)(=O)c1cccs1 (stereo not shown) [Example 200, N-methyl-N-{2-[5-methyl-5-(2-(morpholino)ethyl)-4,5-dihydro-1,3-thiazol-2-yl]-1H-indol-7-yl}thiophene-2-sulfonamide]"
3,53,"CN(c1cccc2cc(C3=NCC(C(C)(C)O)S3)[nH]c12)S(=O)(=O)c1cccs1 (stereo not shown) [Example 226, N-{2-[5-(1-hydroxy-1-methylethyl)-4,5-dihydro-1,3-thiazol-2-yl]-1H-indol-7-yl}-N-methylthiophene-2-sulfonamide]"
4,24,"CN(c1cccc2cc(C3=NCC4(CCOCC4)S3)[nH]c12)S(=O)(=O)c1cccs1 [Example 243, N-methyl-N-[2-(8-oxa-1-thia-3-azaspiro[4.5]dec-2-en-2-yl)-1H-indol-7-yl]thiophene-2-sulfonamide]"
5,37,"CN(c1cccc2cc(C3=NCC4(CCN(CC(N)=O)CC4)S3)[nH]c12)S(=O)(=O)c1cccs1 [Example 414, 2-(2-{7-[methyl(2-thienylsulfonyl)amino]-1H-indol-2-yl}-1-thia-3,8-diazaspiro[4.5]dec-2-en-8-yl)acetamide]"

# System: not given
# Test: not given
# Conditions: not given
row,Structure (SMILES),melting point [°C]
1,"CN(c1cccc2cc(C3=NCC(CC(N)=O)S3)[nH]c12)S(=O)(=O)c1ccccn1 (single isomer, unassigned) [Example 337, 2-(2-{7-[methyl(pyridin-2-ylsulfonyl)amino]-1H-indol-2-yl}-4,5-dihydro-1,3-thiazol-5-yl)acetamide]",149 to 150
2,"CN(c1cccc2cc(C3=NCC4(CCN(CC(N)=O)CC4)S3)[nH]c12)S(=O)(=O)c1cccs1 [Example 414, 2-(2-{7-[methyl(2-thienylsulfonyl)amino]-1H-indol-2-yl}-1-thia-3,8-diazaspiro[4.5]dec-2-en-8-yl)acetamide]",226
